≈ marks a conversion by molar mass, not a printed value. Where “and” joins values, the source holds several entries; their conditions need not be identical. Equal entries are not always repeated. Where two headings read alike, the source gives them in different places.
How the values were obtained:
[1] = Turbidometric solubility (Cyprotex); assay type: physicochemical; conditions: kinetic from dmso stock
Procedure: (§1) All the selected analogues were calculated to be compliant with the Lipinski rule‐of‐five guidelines for oral bioavailability. Furthermore, in vitro ADME (absorption, distribution, metabolism, excretion) properties were assessed as an outsourced service (Cyprotex Discovery Ltd., UK; part of the EvoTec Group); profiling membrane permeability (Caco‐2 cell model), hERG channel cardiotoxicity, human microsomal stability and turbidometric solubility (Table 4).

hERG channel = molecular target: T1, hERG channel (Homo sapiens, UniProt Q12809); test: hERG channel cardiotoxicity assay (Cyprotex)
T1 construct: Cyprotex Discovery Ltd., UK
T1 sequence (Q12809 whole entry): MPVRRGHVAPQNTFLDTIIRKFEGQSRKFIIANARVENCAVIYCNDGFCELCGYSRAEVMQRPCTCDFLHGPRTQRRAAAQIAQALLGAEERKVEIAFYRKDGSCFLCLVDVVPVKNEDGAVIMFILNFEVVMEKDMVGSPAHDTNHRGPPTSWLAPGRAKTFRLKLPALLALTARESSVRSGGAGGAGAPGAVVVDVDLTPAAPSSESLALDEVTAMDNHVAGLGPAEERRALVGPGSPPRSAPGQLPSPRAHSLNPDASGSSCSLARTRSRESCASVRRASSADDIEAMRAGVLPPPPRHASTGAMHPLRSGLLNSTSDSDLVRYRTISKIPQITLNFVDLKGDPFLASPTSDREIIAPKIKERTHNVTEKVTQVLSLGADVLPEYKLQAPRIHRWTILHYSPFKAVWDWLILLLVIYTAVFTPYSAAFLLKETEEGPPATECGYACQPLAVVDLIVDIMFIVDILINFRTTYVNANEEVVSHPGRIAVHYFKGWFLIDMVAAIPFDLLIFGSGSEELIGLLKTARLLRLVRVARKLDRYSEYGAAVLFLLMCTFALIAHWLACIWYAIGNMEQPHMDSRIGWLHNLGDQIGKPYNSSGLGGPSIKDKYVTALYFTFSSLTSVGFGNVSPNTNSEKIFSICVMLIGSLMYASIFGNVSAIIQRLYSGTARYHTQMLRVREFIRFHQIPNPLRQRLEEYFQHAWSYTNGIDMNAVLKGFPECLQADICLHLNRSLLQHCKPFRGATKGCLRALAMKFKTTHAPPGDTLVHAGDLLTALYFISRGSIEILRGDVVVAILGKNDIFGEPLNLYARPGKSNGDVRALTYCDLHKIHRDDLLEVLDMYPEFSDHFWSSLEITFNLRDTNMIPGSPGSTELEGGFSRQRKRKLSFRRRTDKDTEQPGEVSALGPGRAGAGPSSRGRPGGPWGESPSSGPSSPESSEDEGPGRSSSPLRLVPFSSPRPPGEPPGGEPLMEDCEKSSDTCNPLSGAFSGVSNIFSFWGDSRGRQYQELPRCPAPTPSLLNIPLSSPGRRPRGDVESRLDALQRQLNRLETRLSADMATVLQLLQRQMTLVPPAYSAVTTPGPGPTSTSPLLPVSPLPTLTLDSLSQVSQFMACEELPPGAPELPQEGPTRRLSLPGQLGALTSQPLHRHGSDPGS
Procedure: as §1

Caco-2 cell model = test: Caco-2 membrane permeability (Cyprotex); assay type: in vitro ADME
Procedure: as §1

[2] = Caco-2 membrane permeability (Cyprotex); assay type: in vitro ADME; conditions: human, Caco-2
Procedure: as §1

MCF-7 cells = test: Colony forming assay, MCF-7; assay type: cell-based, human; conditions: for IC50: Homo sapiens, MCF7, 168 h, 7 days; for % Clonogenicity (MCF-7, 10 μM): percentage of survival colonies, 7-day incubation, standardised to DMSO control
Procedure: (§2) Human Embryonic Kidney cells (HEK‐293) and human breast cancer cells (MCF‐7, MDA‐MB‐231 and HCC1954) were cultured in complete growth media: […] 1X (Gibco); 10% v/v Fetal Bovine Serum (FBS, Sigma Dorset UK) and L‐glutamine (2 mM, Invitrogen). SW‐480‐WT cells were maintained in selective media made up of Dulbecco's Modified Eagle Medium (Gibco), enriched with […] of Geneticin Selective Antibiotic (G418 Sulfate; Gibco, Thermo Fisher). Cells were incubated at a 5% CO2 atmosphere at 37°C.
(§3) Cells were seeded in a 12‐well plate at 400 cells per well. One hour after the seeding of the cells, compounds (1 mM, 100 μM, 10 μM, 1 μM, 100 nM, 10 nM) or vehicle were added into the wells in triplicate (DMSO vehicle 0.1% and 1%). After 7 days, colonies were stained with 350 μL of crystal violet solution, incubated for 30 min at room temperature, then wells were washed in water and dried. At least the best 3 independent experiments out of 5 independent repeats were used to perform the statistical analysis of the results. Colonies were counted by GelCount Colony Counter (Oxford Optronix Ltd.) using the GelCount 1.1.8.0 software. Assay end points were normalised to 0% (DMSO only) and fitted to a semi‐log plot using at least n = 3 technical replicates (n = 6 for DMSO control and N = 3 independent replicates). The curve fit was performed using GraphPad Prism.
In view of previous reports on Hsp90 inhibitors and their effects on cancer cell viability (Eachkoti et al. [2014]) and clonogenicity (Kinzel et al. [2016]), new compounds were tested for inhibition of cell viability within both non‐tumourigenic (HEK‐293) and breast cancer cell lines (MDA‐MB‐231) at a fixed concentration of 10 μM. The well‐established CellTiter‐Blue endpoint assay was used to assess cell viability. New compounds were also assessed in a colony forming assay (MCF‐7 breast cancer cell line), used as an efficacy screening to provide an indication of the inhibition of clonogenicity for these small molecules (Table 1).

HCC1954 cells = test: Colony forming assay, HCC1954; assay type: cell-based, human
Procedure: as §2
as §3, with “Prism. […]” for “Prism.”

SKBR3 cells = test: Colony forming assay, SKBR3; assay type: cell-based, human; conditions: 7 days treatment at 10 μM
Procedure: as §3
(§4) Compound 5d was screened for the ability to inhibit colony formation in additional human cancer cell lines (Table 3). […] Sub‐micromolar IC50 values in HCC1954 and MDA‐MB‐231 cells were derived by testing over a six‐fold log concentration range. To further extend the profile of activity, the effect of 5d on the colorectal adenocarcinoma cell line SW‐480 was studied, with similarly potent effects on colony viability (Table 3).

SW-480 cells = test: Colony forming assay, SW-480; assay type: cell-based, human
Procedure: as §2
as §3, with “Prism. […]” for “Prism.”

BT474 cells = test: Colony forming assay, BT474; assay type: cell-based, human; conditions: 7 days treatment at 10 μM
Procedure: as §3, §4

MDA-MB-231 cells = test: Colony forming assay, MDA-MB-231; assay type: cell-based, human
Procedure: as §2
as §3, with “Prism. […]” for “Prism.”

[3] = read-out: Solubility - estimated precipitation range, Calc. mid-range
[4] = read-out: Solubility - estimated precipitation range, Lower-bound
[5] = read-out: Solubility - estimated precipitation range, Upper-bound

Row | Compound | solubility [1, 3] [µM] | solubility [1, 4] [µM] | solubility [1, 5] [µM] | IC50 (hERG channel) [nM] | Caco-2 permeability Efflux ratio (Caco-2 cell model) | efflux ratio [2] | IC50 (MCF-7 cells) [nM] | % Clonogenicity (MCF-7, 10 μM) (MCF-7 cells) | Percentage of surviving colonies, HCC1954 (HCC1954 cells; 7 days treatment at 10 μM) | IC50 (HCC1954 cells; Homo sapiens, HCC1954, read-out: Colony formation IC50, HCC1954) [nM] | Percentage of surviving colonies, SKBR3 (SKBR3 cells) | Percentage of surviving colonies, SW-480 (SW-480 cells; 7 days treatment at 10 μM) | IC50 (SW-480 cells; Homo sapiens, SW480, read-out: Colony formation IC50, SW-480) [nM] | Percentage of surviving colonies, BT474 (BT474 cells) | Percentage of surviving colonies, MDA-MB-231 (MDA-MB-231 cells; 7 days treatment at 10 μM) | IC50 (MDA-MB-231 cells; Homo sapiens, MDA-MB-231, read-out: Colony formation IC50, MDA-MB-231) [nM]
1 | COc1ccc(COC(=O)C2=C(C)NC(=O)NC2c2ccc(Cl)cc2)cc1C (stereo not drawn) [Compound 5e, 4‐Methoxy‐3‐Methylbenzyl‐4‐(4‐Chlorophenyl)‐6‐Methyl‐2‐Oxo‐1,2,3,4‐Tetrahydropyrimidine‐5‐Carboxylate] | 65 (≈ 26.1 µg/mL) | 30 (≈ 12 µg/mL) | 100 (≈ 40.1 µg/mL) | > 25000 | 2.74 | > 2 | 910 | 59.96 ± 1.95% | – | – | – | – | – | – | – | –
2 | COc1ccc(C2NC(=O)NC(C)=C2C(=O)OCc2ccc3c(c2)OCO3)c(F)c1 (stereo not drawn) [Compound 5d, Benzo[d][1,3]dioxol‐5‐ylmethyl‐4‐(2‐Fluoro‐4‐Methoxyphenyl)‐6‐Methyl‐2‐Oxo‐1,2,3,4‐Tetrahydropyrimidine‐5‐Carboxylate] | 3.75 (≈ 1.55 µg/mL) | 1 (≈ 0.414 µg/mL) | 6.5 (≈ 2.69 µg/mL) | > 25000 | 2.26 | > 2 | 290 | 49.75% and 49.75 ± 4.35% | 8.8% ± 4.0 | 560 | 94.4% ± 2.1 | 57.9% ± 2.0 | 1210 | 80.4% ± 8.0 | 11.9% ± 2.9 | 620

From article PMC12704579, “New Anticancer 4‐Aryldihydropyrimidinone‐5‐Carboxylates Targeting Hsp90” (Chemical Biology & Drug Design, 2025)
